For assay [1], the system named is IFNγ-induced NO production in RAW cells. Kind of assay: iNOS assay: inhibition of NO production in RAW cells stimulated by interferon-γ. The assay is classed as cell-based. The note with it: for IC50: Suppression of IFNγ-induced NO production, 24 h, Griess reaction, average of two experiments, read-out: RAW (10 ng/ml IFNγ) IC50. How it is done: (§1) Compounds of the present disclosure have been tested for inhibition of nitric oxide (NO) production in RAW cells stimulated by interferon-γ (iNOS assay) and induction of NAD(P)H-quinone oxidoreductase in Hepa1c1c7 cells (NQO1 assay), both assay systems we have previously employed. At the same time, CDDO and TBE-31 were tested as a positive controls in the same assays. […] The potency in the iNOS assay is more than CDDO (pentacycle), whose methyl ester is currently evaluated in Phase II clinical trials as an anti-inflammatory drug. Also the potency correlates to their reactivity as Michael acceptors based on the above-summarized UV studies.
For the iNOS assay, RAW cells were treated with various concentrations of compounds and interferon-γ (10 ng/mL) for 24 h. Supernatants were analyzed for nitric oxide (NO) by the Griess reaction. IC50 values are an average of two separate experiments.
On the technique in general: Griess reagent forms a coloured azo dye with nitrite.

The test system of assay [2] is NAD(P)H-quinone oxidoreductase in Hepa1c1c7 cells. Description: NQO1 assay: induction of NAD(P)H-quinone oxidoreductase in Hepa1c1c7 cells. The assay is classed as cell-based. How it is done: Novel monocyclic cyano enones (MCEs) were synthesized and their Michael reactivity and biological activity were tested in order to identify useful fragments for drug discovery. […] MCE-1 gives reversible and selective Michael adducts with thiol nucleophiles.
as §1

For another assay, the target named is Keap1 (Mus musculus, UniProt Q9Z2X8). Kind of assay: UV studies with Keap1. The note with it: thiol-rich protein. The source says:
Keap1 is an electrophile sensor in the cellular Keap1-Nrf2-antioxidant response elements (ARE) phase II response pathway that regulates the transcription of genes for cytoprotective enzymes such as HO-1 and NQO1.

Assay [3] has as its system IFNγ-induced NO production in RAW cells. The note with it: RAW cells stimulated by interferon-γ; cited from earlier work.
Assay [4] has as its system aflatoxin-induced liver cancer. The note with it: rats, orally active; cited from earlier work.

Molecules are shown by their SMILES. “Also recorded” adds a separate entry of the source.

Chain of Keap1 (Q9Z2X8 whole entry): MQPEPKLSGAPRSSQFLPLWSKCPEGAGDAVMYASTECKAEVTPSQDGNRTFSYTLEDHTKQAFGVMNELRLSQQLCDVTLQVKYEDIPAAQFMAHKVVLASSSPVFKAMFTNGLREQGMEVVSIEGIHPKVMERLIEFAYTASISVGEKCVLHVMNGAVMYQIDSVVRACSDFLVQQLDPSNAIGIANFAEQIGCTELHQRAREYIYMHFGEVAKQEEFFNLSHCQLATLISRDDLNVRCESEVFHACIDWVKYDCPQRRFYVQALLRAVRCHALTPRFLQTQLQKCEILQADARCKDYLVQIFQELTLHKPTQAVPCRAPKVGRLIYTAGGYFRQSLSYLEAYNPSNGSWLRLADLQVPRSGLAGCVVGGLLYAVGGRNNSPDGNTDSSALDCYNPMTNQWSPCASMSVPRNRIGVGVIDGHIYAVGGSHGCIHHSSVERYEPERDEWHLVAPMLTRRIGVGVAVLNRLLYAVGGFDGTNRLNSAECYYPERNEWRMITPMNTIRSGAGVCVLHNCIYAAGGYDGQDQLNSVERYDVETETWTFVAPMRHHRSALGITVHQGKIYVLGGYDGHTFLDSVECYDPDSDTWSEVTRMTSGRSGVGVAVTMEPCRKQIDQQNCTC

With `CC1(C)C=CC(=O)C(C#N)=C1` [MCE-2, reference compound], the IC50 in assay [1] is 380 nM.
Take `C#C[C@]12C=C(C#N)C(=O)C=C1[C@@]1(C)CCC(=O)C(C)(C)[C@@H]1CC2` [MCE-7]: in assay [1], the IC50 is greater than 300 nM. For the same molecule, the “activity in the iNOS assay” value in assay [1] (at a concentration of 300 nM) is “inactive”. Besides, in assay [2], the “potency in the NQO1 assay (in words)” value is given as “less potent than MCE-1”.
With `CC1(C)CC[C@]2(C(=O)O)CC[C@]3(C)[C@H](C(=O)C=C4[C@@]5(C)C=C(C#N)C(=O)C(C)(C)[C@@H]5CC[C@]43C)[C@@H]2C1` [CDDO, 2-cyano-3,12-diooxooleana-1,9(11)-dien-28-oic acid, reference compound], the IC50 in assay [1] worked out at 20 nM.
Still for that read-out and setting: the value for `C=CC1(C)C=CC(=O)C(C#N)=C1` (stereo not shown) [MCE-15, 3-methyl-6-oxo-3-vinyl-cyclohexa-1,4-dienecarbonitrile] was 300 nM.
Regarding `C#CC1(C)C=CC(=O)C(C#N)=C1` (stereo not shown) [MCE-1, 3-Ethynyl-3-methyl-6-oxocyclohexa-1,4-dienecarbonitrile], the “potency in the iNOS assay (in words)” value in assay [1] (RAW cells stimulated by interferon-γ) is on record as “highly potent; also recorded: higher than CDDO; also recorded: highest potency amongst MCEs”. Moreover, the IC50 in assay [1] stood at 8 nM. The “potency in the NQO1 assay (in words)” value in assay [2] is recorded as “highly potent; also recorded: highest potency amongst MCEs”. Moreover, the “reactivity with Keap1 (UV)” value on Keap1 is “highest reactivity”.
As for `C#CC12C=C(C#N)C(=O)C=C1[C@@]1(C)C=C(C#N)C(=O)C(C)(C)[C@@H]1CC2` (stereo partly shown) [TBE-31], the IC50 in assay [1] turned out to be 1 nM. In addition, the “inhibition of NO production (iNOS assay), literature” value in assay [3] is reported as “low nanomolecular concentrations”. For the same molecule, the “potency against aflatoxin-induced liver cancer” value in assay [4] is “exceptionally potent”.

These data come from patent US9000188B2, “Monocyclic cyanoenones and methods of use thereof” (Trustees of Dartmouth College, priority 2008, dated 2015).
